Experimental data as given in ChEMBL document CHEMBL1125282, “Evaluation of desferrithiocin and its synthetic analogues as orally effective iron chelators” (1991).

Experiments:
Format in all cases: functional
Rattus norvegicus [1] = assay: Total iron output induced by the compound (oral administration) and bile duct cannulated rat and the drug-promoted iron excretion was monitored in the bile at 15 hr; also: test concentration or dose not given here
Rattus norvegicus [2] = assay: Total iron output induced by the compound (oral administration) and bile duct cannulated rat and the drug-promoted iron excretion was monitored in the bile at 12 hr
Rattus norvegicus [3] = assay: Total iron output induced by the compound (oral administration) and bile duct cannulated rat and the drug-promoted iron excretion was monitored in the bile at 3h; also: test concentration or dose not given here
Rattus norvegicus [4] = assay: Total iron output induced by the compound (oral administration) and bile duct cannulated rat and the drug-promoted iron excretion was monitored in the bile at 9 h
Rattus norvegicus [5] = assay: Total iron output induced by the compound (oral administration) and bile duct cannulated rat and the drug-promoted iron excretion was monitored in the bile at 18 h
Rattus norvegicus [6] = assay: Total iron output induced by the compound (oral administration) and bile duct cannulated rat and the drug-promoted iron excretion was monitored in the bile at 24 hr
Rattus norvegicus [7] = assay: Total iron output induced by the compound (oral administration) and bile duct cannulated rat and the drug-promoted iron excretion was monitored in the urine at 24 hr
Rattus norvegicus [8] = assay: Total iron output induced by the compound (oral administration) and bile duct cannulated rat and the drug-promoted iron excretion was monitored in the bile at 6 hr; also: test concentration or dose not given here
Rattus norvegicus [9] = assay: Total iron output induced by the compound (oral administration) and bile duct cannulated rat and the drug-promoted iron excretion was monitored in the bile at 21 hr; also: test concentration or dose not given here
Rattus norvegicus [10] = assay: Total iron output induced by the compound (sc administration) and bile duct cannulated rat and the drug-promoted iron excretion was monitored in the bile at 9 h
Rattus norvegicus [11] = assay: Total iron output induced by the compound (sc administration) and bile duct cannulated rat and the drug-promoted iron excretion was monitored in the bile at 24 hr
Rattus norvegicus [12] = assay: Total iron output induced by the compound (sc administration) and bile duct cannulated rat and the drug-promoted iron excretion was monitored in the bile at 6 hr
Rattus norvegicus [13] = assay: Total iron output induced by the compound (sc administration) and bile duct cannulated rat and the drug-promoted iron excretion was monitored in the bile at 12 hr
Rattus norvegicus [14] = assay: Total iron output induced by the compound (sc administration) and bile duct cannulated rat and the drug-promoted iron excretion was monitored in the bile at 3h
Rattus norvegicus [15] = assay: Total iron output induced by the compound (sc administration) and bile duct cannulated rat and the drug-promoted iron excretion was monitored in the urine at 24 hr
Rattus norvegicus [16] = assay: Total iron output induced by the compound (sc administration) and bile duct cannulated rat and the drug-promoted iron excretion was monitored in the bile at 21 hr
Rattus norvegicus [17] = assay: Total iron output induced by the compound (sc administration) and bile duct cannulated rat and the drug-promoted iron excretion was monitored in the bile at 15 hr
Rattus norvegicus [18] = assay: Total iron output induced by the compound (sc administration) and bile duct cannulated rat and the drug-promoted iron excretion was monitored in the bile at 18 h

SMILES	Total iron output (Rattus norvegicus [1]) [µg/kg]	Total iron output (Rattus norvegicus [2]) [µg/kg]	Total iron output (Rattus norvegicus [3]) [µg/kg]	Total iron output (Rattus norvegicus [4]) [µg/kg]	Total iron output (Rattus norvegicus [5]) [µg/kg]	Total iron output (Rattus norvegicus [6]) [µg/kg]	Total iron output (Rattus norvegicus [7]) [µg/kg]	Total iron output (Rattus norvegicus [8]) [µg/kg]	Total iron output (Rattus norvegicus [9]) [µg/kg]	Total iron output (Rattus norvegicus [10]) [µg/kg]	Total iron output (Rattus norvegicus [11]) [µg/kg]	Total iron output (Rattus norvegicus [12]) [µg/kg]	Total iron output (Rattus norvegicus [13]) [µg/kg]	Total iron output (Rattus norvegicus [14]) [µg/kg]	Total iron output (Rattus norvegicus [15]) [µg/kg]	Total iron output (Rattus norvegicus [16]) [µg/kg]	Total iron output (Rattus norvegicus [17]) [µg/kg]	Total iron output (Rattus norvegicus [18]) [µg/kg]
O=C([O-])[C@@H]1CSC(c2ncccc2O)=N1.[Na+]	56.3	48.5	9	40.7	65.3	81.9	21	28.1	74.8									
O=C([O-])[C@@H]1CSC(c2ccccc2O)=N1.[Na+]	210.6	184.9	28.6	143.8	226.8	246.9	18.67	91.6	238.1									
O=C(O)[C@@H]1CSC(c2ccccn2)=N1	47.1	39.5	11.8	31.2	56.2	71.9	14.2	22.5	64.1									
O=C(O)[C@@H]1CSC(c2ncccc2O)=N1	194	182.3	28.7	154	201.3	217.2	14.1	98.2	209.6									
C[C@]1(C(=O)NCCCCNCCCNC(=O)[C@@]2(C)CSC(c3ncccc3O)=N2)CSC(c2ncccc2O)=N1	65.8	56.6	13.2	45.2	74	92.8	18	30	82.2									
COC(=O)[C@H]1N=C(c2ncccc2O)O[C@@H]1C	43.7	37.3	11.3	20.2	49.4	60.8	7.6	21.3	55.1									
COC(=O)[C@@H]1CSC(c2ncccc2O)=N1	74.7	68.7	42.9	59.9	81	93.3	18.7	53.3	85.3									
O=C([O-])[C@@H]1CSC(c2ccccn2)=N1.[Na+]	42.2	34.9	7.1	26.2	49.6	62.1	11.9	16.6	56.8									
CC(=O)N(O)CCCCCNC(=O)CCC(=O)N(O)CCCCCNC(=O)CCC(=O)N(O)CCCCCN [DEFEROXAMINE]	110.8	97.1	14.7	76.8	119.8	135	16.5	43.9	128.7	152.8	228.4	105.9	173.9	43.6	49.2	219.8	196.2	210.7
C[C@]1(C(=O)[O-])CSC(c2ncccc2O)=N1.[Na+] [DESFERRITHIOCIN SODIUM]	135.9	125.8	21.8	111.7	146.8	159.3	38.43	70	153.2									
C[C@]1(C(=O)O)CSC(c2ncccc2O)=N1 [DESFERRITHIOCIN]	245.6	234.8	64.5	205.3	253.7	268.5	27	143	263.1									
